# Measurements taken from patent publication US8912121B2, “Herbicidal compositions comprising 4-amino-3-chloro-5-fluoro-6-(4-chloro-2-fluoro-3-methoxyphenyl)pyridine-2-carboxylic acid or a derivative thereof and certain PS II inhibitors” (Dow Agrosciences LLC, priority 2012, dated 2014).
# Experiments:
# [1] = tested on: ECHCO (Echinochloa colonum, junglerice); test: Pre-emergence soil-applied mixtures, greenhouse; type: in vivo, Echinochloa colonum (L.) Link
# Source text: (§1) Seeds or nutlets of the desired test plant species were planted in a soil matrix prepared by mixing a loam soil (32 percent silt, 23 percent clay, and 45 percent sand, with a pH of about 6.5 and an organic matter content of about 1.9 percent) and calcareous grit in an 80 to 20 ratio. The soil matrix was contained in plastic pots with a volume of 1 quart and a surface area of 83.6 square centimeters (cm^2).
# (§2) Treatments consisted of the benzyl ester of 4-amino-3-chloro-5-fluoro-6-(4-chloro-2-fluoro-3-methoxy-phenyl)pyridine-2-carboxylic acid (compound A) formulated as an SC (suspension concentrate) and various herbicidal components alone and in combination. Forms of compound A were applied on an acid equivalent basis.
# (§3) Other herbicidal components were applied on an acid equivalent or active ingredient basis and included the PSII-inhibiting herbicides, atrazine formulated as Atrazine® 90WDG, metribuzin formulated as Metribuzin 75DF, simazine formulated as Princep Caliber 90, tebuthiuron formulated as Spike 80DF, cyanazine (technical grade material), hexazinone (technical grade material), linuron (technical grade material), terbuthylazine (technical grade material), and diuron formulated as Diuron 4L.
# (§4) Treatment requirements were calculated based upon the rates being tested, the concentration of active ingredient or acid equivalent in the formulation, and a 12 mL application volume at a rate of 187 L/ha.
# For treatments comprised of formulated compounds, measured amounts of compounds were placed individually in 25 mL glass vials and diluted in a volume of 1.25% (v/v) Agri-Dex® crop oil concentrate (COC) to obtain 12× stock solutions. […]
# (§5) For treatments comprised of formulated and technical compounds, weighed amounts of the technical materials can be placed individually in 25 mL glass vials and dissolved in a volume of 97:3 (v/v) acetone/DMSO to obtain 12× stock solutions, and measured amounts of the formulated compounds can be placed individually in 25 mL glass vials and diluted in a volume of 1.5% (v/v) COC or water to obtain 12× stock solutions. […]
# [2] = tested on: ECHCG (Echinochloa crus-galli, barnyardgrass); test: Pre-emergence soil-applied mixtures, greenhouse; type: in vivo, Echinochloa crus-galli (L.) P. Beauv.
# Source text: as §1, §2, §3, §4
# For treatments comprised of formulated compounds, measured amounts of compounds were placed individually in 25 mL glass vials and diluted in a volume of 1.25% (v/v) Agri-Dex® crop oil concentrate (COC) to obtain 12× stock solutions. […] Application solutions were prepared by adding an appropriate amount of each stock solution (e.g., 1 mL) and diluted to the appropriate final concentrations with the addition of 10 mL of an aqueous mixture of 1.25% (v/v) COC so that the final spray solutions contained 1.25% (v/v) COC.
# For treatments comprised of technical compounds, weighed amounts can be placed individually in 25 mL glass vials and dissolved in a volume of 97:3 (v/v) acetone/DMSO to obtain 12× stock solutions. […]
# as §5
# [3] = tested on: SINAR (Sinapis arvensis, wild mustard); test: Postemergence herbicidal activity of mixtures in cereal crops, greenhouse; type: in vivo, Sinapis arvensis L.
# Description: (§6) Seeds of the desired test plant species were planted in Sun Gro MetroMix® 306 planting mixture, which typically has a pH of 6.0 to 6.8 and an organic matter content of about 30 percent, in plastic pots with a surface area of 103.2 square centimeters (cm^2). When required to ensure good germination and healthy plants, a fungicide treatment and/or other chemical or physical treatment was applied. The plants were grown for 7-36 days in a greenhouse with an approximate 14 hour photoperiod which was maintained at about 18° C. during the day and about 17° C. during the night. Nutrients and water were added on a regular basis and supplemental lighting was provided with overhead metal halide 1000-Watt lamps as necessary. The plants were employed for testing when they reached the second or third true leaf stage.
# (§7) Treatments consisted of the benzyl ester of 4-amino-3-chloro-5-fluoro-6-(4-chloro-2-fluoro-3-methoxy-phenyl)pyridine-2-carboxylic acid (Compound A), formulated as an SC, a second cereal herbicide alone and then both in combination.
# (§8) Other herbicidal components were applied on an active ingredient basis and included PSII-inhibiting herbicides.
# (§9) Measured aliquots of benzyl ester of 4-amino-3-chloro-5-fluoro-6-(4-chloro-2-fluoro-3-methoxy-phenyl)pyridine-2-carboxylic acid (Compound A) were placed in 25 milliliter (mL) glass vials and diluted in a volume of 1.25% (v/v) Agri-Dex® crop oil concentrate to obtain stock solutions. Compound requirements are based upon a 12 mL application volume at a rate of 187 liters per hectare (L/ha). Spray solutions of the second cereal herbicide and experimental compound mixtures were prepared by adding the stock solutions to the appropriate amount of dilution solution to form 12 mL spray solution with active ingredients in two- and three-way combinations. Formulated compounds were applied to the plant material with an overhead Mandel track sprayer equipped with an 8002E nozzle calibrated to deliver 187 L/ha over an application area of 0.503 square meters (m^2) at a spray height of 18 inches (46 cm) above average plant canopy. Control plants were sprayed in the same manner with the solvent blank.
# (§10) The treated plants and control plants were placed in a greenhouse as described above and watered by sub-irrigation to prevent wash-off of the test compounds. After 20-22 days, the condition of the test plants as compared with that of the control plants was determined visually and scored on a scale of 0 to 100 percent where 0 corresponds to no injury and 100 corresponds to complete kill.
# (§11) Colby's equation was used to determine the herbicidal effects expected from the mixtures (Colby, S. R. 1967. Calculation of the synergistic and antagonistic response of herbicide combinations. Weeds 15:20-22).
# (§12) The following equation was used to calculate the expected activity of mixtures containing two active ingredients, A and B: Expected=A+B−(A×B/100)
# [4] = tested on: VERPE (Veronica persica, Persian speedwell); test: as above; type: in vivo, Veronica persica Poir.
# Description: as §6, §7, §8, §9, §10, §11, §12
# [5] = Compound A Benzyl Ester 16 g ae/ha
# [6] = Compound A Benzyl Ester 32 g ae/ha
smiles,measurement,setting,value
"COc1c(Cl)ccc(-c2nc(C(=O)OCc3ccccc3)c(Cl)c(N)c2F)c1F [Compound A Benzyl Ester, benzyl ester of 4-amino-3-chloro-5-fluoro-6-(4-chloro-2-fluoro-3-methoxy-phenyl)pyridine-2-carboxylic acid]",Visual Weed Control (%)-29 DAA ECHCO Obs,[1]; [5],0%
same,Visual Weed Control (%)-29 DAA ECHCO Obs,[1]; [6],5%
same,Visual Weed Control (%)-28 DAA ECHCG Obs,[2]; [5],0%
same,Visual Weed Control (%)-28 DAA ECHCG Obs,[2]; [6],0%
same,Visual Weed Control (%)-21 DAA SINAR Obs,"[3]; Compound A Benzyl Ester 2.5 g ai/ha, Table 21",70%
same,Visual Weed Control (%)-21 DAA SINAR Obs,"[3]; Compound A Benzyl Ester 2.5 g ai/ha, Table 22",70%
same,Visual Weed Control (%)-21 DAA SINAR Obs,"[3]; Compound A Benzyl Ester 5 g ai/ha, Table 21",73%
same,Visual Weed Control (%)-21 DAA SINAR Obs,"[3]; Compound A Benzyl Ester 5 g ai/ha, Table 22",73%
same,Visual Weed Control (%) - 21 DAA VERPE Obs,[4]; Compound A Benzyl Ester 5 g ai/ha,17%
same,Visual Weed Control (%) - 21 DAA VERPE Obs,[4]; Compound A Benzyl Ester 10 g ai/ha,23%
